Measurements taken from ChEMBL document CHEMBL3044870, “Effect of clomazone on various market classes of dry beans” (Crop Prot, 2007).

Assays:
Type in all cases: organism-based
Settings in all cases: in vivo, other
Phaseolus vulgaris [1] = assay: Phytotoxicity against Phaseolus vulgaris (otebo beans) assessed as visual crop injury at 2232 g a.i./ha applied pre-emergence 1 to 2 days post-planting measured on day 14 post-emergence relative to control
Phaseolus vulgaris [2] = assay: Phytotoxicity against Phaseolus vulgaris (otebo beans) assessed as visual crop injury at 1116 g a.i./ha applied pre-emergence 1 to 2 days post-planting measured on day 14 post-emergence relative to control
Phaseolus vulgaris [3] = assay: Phytotoxicity against Phaseolus vulgaris (kidney beans) assessed as visual crop injury at 1116 g a.i./ha applied pre-emergence 1 to 2 days post-planting measured on day 14 post-emergence relative to control
Phaseolus vulgaris [4] = assay: Phytotoxicity against Phaseolus vulgaris (brown beans) assessed as visual crop injury at 2232 g a.i./ha applied pre-emergence 1 to 2 days post-planting measured on day 14 post-emergence relative to control
Phaseolus vulgaris [5] = assay: Phytotoxicity against Phaseolus vulgaris (black beans) assessed as visual crop injury at 2232 g a.i./ha applied pre-emergence 1 to 2 days post-planting measured on day 14 post-emergence relative to control
Phaseolus vulgaris [6] = assay: Phytotoxicity against Phaseolus vulgaris (dry beans) assessed as visual crop injury at 2232 g a.i./ha applied pre-emergence 1 to 2 days post-planting measured on day 14 post-emergence relative to control
Phaseolus vulgaris [7] = assay: Phytotoxicity against Phaseolus vulgaris (dry beans) assessed as visual crop injury at 1116 g a.i./ha applied pre-emergence 1 to 2 days post-planting measured on day 28 post-emergence relative to control
Phaseolus vulgaris [8] = assay: Phytotoxicity against Phaseolus vulgaris (dry beans) assessed as visual crop injury at 1116 g a.i./ha applied pre-emergence 1 to 2 days post-planting measured on day 14 post-emergence relative to control
Phaseolus vulgaris [9] = assay: Phytotoxicity against Phaseolus vulgaris (dry beans) assessed as change in seed moisture content at 1116 to 2232 g a.i./ha applied pre-emergence 1 to 2 days post-planting relative to control
Phaseolus vulgaris [10] = assay: Phytotoxicity against Phaseolus vulgaris (white beans) assessed as yield at 2232 g a.i./ha applied pre-emergence 1 to 2 days post-planting measured on day 42 post-emergence (reference value: 3 tons/ha)
Phaseolus vulgaris [11] = assay: Phytotoxicity against Phaseolus vulgaris (otebo beans) assessed as yield at 2232 g a.i./ha applied pre-emergence 1 to 2 days post-planting measured on day 42 post-emergence (reference value: 3.4 tons/ha)
Phaseolus vulgaris [12] = assay: Phytotoxicity against Phaseolus vulgaris (kidney beans) assessed as yield at 2232 g a.i./ha applied pre-emergence 1 to 2 days post-planting measured on day 42 post-emergence (reference value: 2.3 tons/ha)
Phaseolus vulgaris [13] = assay: Phytotoxicity against Phaseolus vulgaris (kidney beans) assessed as yield at 1116 g a.i./ha applied pre-emergence 1 to 2 days post-planting measured on day 42 post-emergence (reference value: 2.3 tons/ha)
Phaseolus vulgaris [14] = assay: Phytotoxicity against Phaseolus vulgaris (cranberry beans) assessed as yield at 2232 g a.i./ha applied pre-emergence 1 to 2 days post-planting measured on day 42 post-emergence (reference value: 3.1 tons/ha)
Phaseolus vulgaris [15] = assay: Phytotoxicity against Phaseolus vulgaris (brown beans) assessed as yield at 2232 g a.i./ha applied pre-emergence 1 to 2 days post-planting measured on day 42 post-emergence (reference value: 2.5 tons/ha)
Phaseolus vulgaris [16] = assay: Phytotoxicity against Phaseolus vulgaris (brown beans) assessed as yield at 1116 g a.i./ha applied pre-emergence 1 to 2 days post-planting measured on day 42 post-emergence (reference value: 2.5 tons/ha)
Phaseolus vulgaris [17] = assay: Phytotoxicity against Phaseolus vulgaris (black beans) assessed as yield at 1116 g a.i./ha applied pre-emergence 1 to 2 days post-planting measured on day 42 post-emergence (reference value: 3.6 tons/ha)
Phaseolus vulgaris [18] = assay: Phytotoxicity against Phaseolus vulgaris (yellow eye beans) assessed as shoot dry weight at 1116 g a.i./ha applied pre-emergence 1 to 2 days post-planting measured on day 42 post-emergence (reference value: 162 g/m)
Phaseolus vulgaris [19] = assay: Phytotoxicity against Phaseolus vulgaris (white beans) assessed as shoot dry weight at 1116 g a.i./ha applied pre-emergence 1 to 2 days post-planting measured on day 42 post-emergence (reference value: 175 g/m)
Phaseolus vulgaris [20] = assay: Phytotoxicity against Phaseolus vulgaris (white beans) assessed as shoot dry weight at 2232 g a.i./ha applied pre-emergence 1 to 2 days post-planting measured on day 42 post-emergence (reference value: 175 g/m)
Phaseolus vulgaris [21] = assay: Phytotoxicity against Phaseolus vulgaris (pinto beans) assessed as shoot dry weight at 2232 g a.i./ha applied pre-emergence 1 to 2 days post-planting measured on day 42 post-emergence (reference value: 168 g/m)
Phaseolus vulgaris [22] = assay: Phytotoxicity against Phaseolus vulgaris (otebo beans) assessed as shoot dry weight at 1116 g a.i./ha applied pre-emergence 1 to 2 days post-planting measured on day 42 post-emergence (reference value: 188 g/m)
Phaseolus vulgaris [23] = assay: Phytotoxicity against Phaseolus vulgaris (otebo beans) assessed as shoot dry weight at 2232 g a.i./ha applied pre-emergence 1 to 2 days post-planting measured on day 42 post-emergence (reference value: 188 g/m)
Phaseolus vulgaris [24] = assay: Phytotoxicity against Phaseolus vulgaris (kidney beans) assessed as shoot dry weight at 1116 g a.i./ha applied pre-emergence 1 to 2 days post-planting measured on day 42 post-emergence (reference value: 145 g/m)
Phaseolus vulgaris [25] = assay: Phytotoxicity against Phaseolus vulgaris (black beans) assessed as shoot dry weight at 2232 g a.i./ha applied pre-emergence 1 to 2 days post-planting measured on day 42 post-emergence (reference value: 165 g/m)
Phaseolus vulgaris [26] = assay: Phytotoxicity against Phaseolus vulgaris (black beans) assessed as shoot dry weight at 1116 g a.i./ha applied pre-emergence 1 to 2 days post-planting measured on day 42 post-emergence (reference value: 165 g/m)
Phaseolus vulgaris [27] = assay: Phytotoxicity against Phaseolus vulgaris (pinto beans) assessed as plant height at 2232 g a.i./ha applied pre-emergence 1 to 2 days post-planting measured on day 28 post-emergence (reference value: 38 cm)
Phaseolus vulgaris [28] = assay: Phytotoxicity against Phaseolus vulgaris (pinto beans) assessed as plant height at 1116 g a.i./ha applied pre-emergence 1 to 2 days post-planting measured on day 28 post-emergence (reference value: 38 cm)
Phaseolus vulgaris [29] = assay: Phytotoxicity against Phaseolus vulgaris (otebo beans) assessed as plant height at 2232 g a.i./ha applied pre-emergence 1 to 2 days post-planting measured on day 28 post-emergence (reference value: 38 cm)
Phaseolus vulgaris [30] = assay: Phytotoxicity against Phaseolus vulgaris (cranberry beans) assessed as plant height at 1116 g a.i./ha applied pre-emergence 1 to 2 days post-planting measured on day 28 post-emergence (reference value: 37 cm)
Phaseolus vulgaris [31] = assay: Phytotoxicity against Phaseolus vulgaris (brown beans) assessed as plant height at 1116 g a.i./ha applied pre-emergence 1 to 2 days post-planting measured on day 28 post-emergence (reference value: 37 cm)
Phaseolus vulgaris [32] = assay: Phytotoxicity against Phaseolus vulgaris (black beans) assessed as plant height at 1116 g a.i./ha applied pre-emergence 1 to 2 days post-planting measured on day 28 post-emergence (reference value: 34 cm)

For `CC1(C)CON(Cc2ccccc2Cl)C1=O` [CLOMAZONE], the Activity (Phaseolus vulgaris [1]) was 11%, the Activity (Phaseolus vulgaris [2]) was 3% and the Activity (Phaseolus vulgaris [3]) was 5%. It also gave an Activity (Phaseolus vulgaris [4]) of 8%, an Activity (Phaseolus vulgaris [5]) of 13% and an Activity (Phaseolus vulgaris [6]) of 10%. For the same molecule, the Activity (Phaseolus vulgaris [7]) was 1%, the Activity (Phaseolus vulgaris [8]) was 4% and the Activity (Phaseolus vulgaris [9]) was “Non-toxic”. For the same molecule, the Crop_yield (Phaseolus vulgaris [10]) was 3.2 tons/ha, the Crop_yield (Phaseolus vulgaris [11]) was 3.2 tons/ha and the Crop_yield (Phaseolus vulgaris [12]) was 2.3 tons/ha. The Crop_yield (Phaseolus vulgaris [13]) was 2.3 tons/ha, the Crop_yield (Phaseolus vulgaris [14]) was 3 tons/ha and the Crop_yield (Phaseolus vulgaris [15]) was 2.7 tons/ha. It also gave a Crop_yield (Phaseolus vulgaris [16]) of 2.6 tons/ha, a Crop_yield (Phaseolus vulgaris [17]) of 3.3 tons/ha and an Activity (Phaseolus vulgaris [18]) of 160 g/m. It also gave an Activity (Phaseolus vulgaris [19]) of 174 g/m, an Activity (Phaseolus vulgaris [20]) of 154 g/m and an Activity (Phaseolus vulgaris [21]) of 146 g/m. For the same molecule, the Activity (Phaseolus vulgaris [22]) was 189 g/m, the Activity (Phaseolus vulgaris [23]) was 168 g/m and the Activity (Phaseolus vulgaris [24]) was 142 g/m. The Activity (Phaseolus vulgaris [25]) was 150 g/m, the Activity (Phaseolus vulgaris [26]) was 167 g/m and the Activity (Phaseolus vulgaris [27]) was 32 cm. For the same molecule, the Activity (Phaseolus vulgaris [28]) was 36 cm, the Activity (Phaseolus vulgaris [29]) was 34 cm and the Activity (Phaseolus vulgaris [30]) was 35 cm. The Activity (Phaseolus vulgaris [31]) was 35 cm and the Activity (Phaseolus vulgaris [32]) was 34 cm.
